The nature of data set [1]: Parallel Artificial Membrane Permeability Assay (PAMPA) at pH 6.8. The data set is classed as physicochemical. The method in brief: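 Reported as log Pe, membrane permeability was determined by parallel artificial membrane assay at pH 6.8 per Wohnsland–Faller.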
(In general: PAMPA measures passive passage across an artificial lipid membrane.)

In data set [2] the target is T1, mTOR (Homo sapiens, UniProt P42345).
T1 construct: purchased Invitrogen Corporation (Carlsbad/Calif., USA) PV4753
Nature of the data set: Biochemical assay for m-TOR by TR-FRET. As to conditions: read-out: EPK_mTOR/IC50. The procedure, abridged:
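mTOR (0.5 nM) phosphorylates GFP-4EBP1 (400 nM) with 8 μM ATP at rt in 50 mM HEPES pH 7.5, 10 mM MnCl2, 50 mM NaCl, 1 mM EGTA, 1 mM DTT; compounds 0.003–10 μM final. EDTA stop with Tb-anti-p4EBP1[pT46] antibody (0.5 nM); TR-FRET read after 15 min against no-enzyme and vehicle controls.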

Data set [3] deals with PKB Ser473 phosphorylation in Rat1-myr-HA-p110 alpha cells. Nature of the data set: Reverse protein array, PKB Ser473 phosphorylation in Rat1-myr-HA-p110 alpha cells. It is filed as cell-based. As to conditions: Rattus norvegicus, 0.5 h, 30 minutes compound incubation, read-out: p-PKB/IC50_alpha.
Data set [4] deals with PKB Ser473 phosphorylation in Rat1-myr-HA-p110 beta cells. The data set can be described thus: Reverse protein array, PKB Ser473 phosphorylation in Rat1-myr-HA-p110 beta cells. As to conditions: Rattus norvegicus, 0.5 h, 30 minutes compound incubation, read-out: p-PKB/IC50_beta. The data set is classed as cell-based.

T1 sequence (P42345 1360-2549 limits assumed): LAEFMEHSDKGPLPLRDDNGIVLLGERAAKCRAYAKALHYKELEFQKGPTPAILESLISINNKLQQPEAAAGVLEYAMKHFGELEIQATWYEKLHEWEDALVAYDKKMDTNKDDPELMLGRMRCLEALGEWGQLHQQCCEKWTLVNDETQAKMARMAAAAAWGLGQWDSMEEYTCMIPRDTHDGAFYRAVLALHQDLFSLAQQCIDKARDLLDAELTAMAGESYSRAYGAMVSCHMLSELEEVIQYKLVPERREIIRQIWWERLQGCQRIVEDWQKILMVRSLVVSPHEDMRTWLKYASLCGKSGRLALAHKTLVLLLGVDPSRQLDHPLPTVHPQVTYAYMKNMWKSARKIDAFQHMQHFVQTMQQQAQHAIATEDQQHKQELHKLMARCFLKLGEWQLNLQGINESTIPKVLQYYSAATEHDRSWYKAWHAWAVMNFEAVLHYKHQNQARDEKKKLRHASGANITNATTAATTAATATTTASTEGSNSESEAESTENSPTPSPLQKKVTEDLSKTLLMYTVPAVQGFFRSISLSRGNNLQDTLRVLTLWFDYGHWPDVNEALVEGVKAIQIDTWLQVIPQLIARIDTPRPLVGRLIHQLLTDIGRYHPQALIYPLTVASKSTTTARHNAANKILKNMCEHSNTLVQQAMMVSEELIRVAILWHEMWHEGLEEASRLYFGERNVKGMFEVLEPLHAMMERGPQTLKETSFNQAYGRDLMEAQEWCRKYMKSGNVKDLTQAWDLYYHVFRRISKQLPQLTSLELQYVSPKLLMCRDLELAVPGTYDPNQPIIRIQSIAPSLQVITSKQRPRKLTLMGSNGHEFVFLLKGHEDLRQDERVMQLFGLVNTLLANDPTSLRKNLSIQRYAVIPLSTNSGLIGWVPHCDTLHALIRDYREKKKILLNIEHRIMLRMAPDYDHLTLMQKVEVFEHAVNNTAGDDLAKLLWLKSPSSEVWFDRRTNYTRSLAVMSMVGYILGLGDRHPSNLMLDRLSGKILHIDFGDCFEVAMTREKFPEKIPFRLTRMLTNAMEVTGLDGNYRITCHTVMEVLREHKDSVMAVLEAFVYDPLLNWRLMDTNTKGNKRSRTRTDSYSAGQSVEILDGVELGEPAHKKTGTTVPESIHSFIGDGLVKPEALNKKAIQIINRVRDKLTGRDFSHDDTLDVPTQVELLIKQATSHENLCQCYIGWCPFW

`COc1ccc(-n2c(=O)n(C)c3cnc4ccc(-c5cnc(CO)c(OC)c5)cc4c32)c(C)n1` [Example 11.8, 8-(6-Hydroxymethyl-5-methoxy-pyridin-3-yl)-1-(6-methoxy-2-methyl-pyridin-3-yl)-3-methyl-1,3-dihydro-imidazo[4,5-c]quinolin-2-one]: in data set [1], the “HT-Perm logPe pH6.8” value is listed as −3.9. In addition, the IC50 was found to be 46 nM in data set [2], 7.8 nM in data set [3] and 31.1 nM in data set [4].

For the compound `CCN(C)c1ccc(-n2c(=O)n(C)c3cnc4ccc(-c5ccc(NC)nc5)cc4c32)c(C)n1` [Example 12.1, 1-[6-(Ethyl-methyl-amino)-2-methyl-pyridin-3-yl]-3-methyl-8-(6-methylamino-pyridin-3-yl)-1,3-dihydro-imidazo[4,5-c]quinolin-2-one], the “HT-Perm logPe pH6.8” value in data set [1] is on record as −4.1. Besides, the IC50 is 10 nM in data set [2], 5.2 nM in data set [3] and below 4.57 nM in data set [4].

Turning to `CCNc1cc(-c2ccc3ncc4c(c3c2)n(-c2ccc(N(C)CC)nc2C)c(=O)n4C)cnc1C` [Example 12.2, 8-(5-Ethylamino-6-methyl-pyridin-3-yl)-1-[6-(ethyl-methyl-amino)-2-methyl-pyridin-3-yl]-3-methyl-1,3-dihydro-imidazo[4,5-c]quinolin-2-one], in data set [1], the “HT-Perm logPe pH6.8” value is −4. For the same compound, the IC50 was 7 nM in data set [2], below 4.57 nM in data set [3] and below 4.57 nM in data set [4].

For `CCOc1ccc(-c2ccc3ncc4c(c3c2)n(-c2ccc(OCCOC)nc2C)c(=O)n4C)cn1` [Example 13.1, 8-(6-Ethoxy-pyridin-3-yl)-1-[6-(2-methoxy-ethoxy)-2-methyl-pyridin-3-yl]-3-methyl-1,3-dihydro-imidazo[4,5-c]quinolin-2-one], in data set [1], the “HT-Perm logPe pH6.8” value was −4. For the same compound, the figures for the IC50 in data set [2], in data set [3] and in data set [4] were 49 nM, 17 nM and 15.7 nM, respectively.

For `COCCOc1ccc(-n2c(=O)n(C)c3cnc4ccc(-c5cnc(N)c(C(F)(F)F)c5)cc4c32)c(C)n1` [Example 13.2, 8-(6-Amino-5-trifluoromethyl-pyridin-3-yl)-1-[6-(2-methoxy-ethoxy)-2-methyl-pyridin-3-yl]-3-methyl-1,3-dihydro-imidazo[4,5-c]quinolin-2-one], in data set [1], the “HT-Perm logPe pH6.8” value is reported as −3.7. In addition, the IC50 in data set [2] is 18 nM; in data set [3] it was below 4.57 nM; in data set [4], 5.3 nM.

Regarding `CNc1ccc(-c2ccc3ncc4c(c3c2)n(-c2ccc(OCCOC)nc2C)c(=O)n4C)cn1` [Example 13.3, 1-[6-(2-Methoxy-ethoxy)-2-methyl-pyridin-3-yl]-3-methyl-8-(6-methylamino-pyridin-3-yl)-1,3-dihydro-imidazo[4,5-c]quinolin-2-one], the “HT-Perm logPe pH6.8” value in data set [1] was −4. Further, the IC50 in data set [2] was 14 nM; in data set [3] it was 5 nM; in data set [4], below 4.57 nM.

As to `CCNc1cc(-c2ccc3ncc4c(c3c2)n(-c2ccc(OCCOC)nc2C)c(=O)n4C)cnc1C` [Example 13.4, 8-(5-Ethylamino-6-methyl-pyridin-3-yl)-1-[6-(2-methoxy-ethoxy)-2-methyl-pyridin-3-yl]-3-methyl-1,3-dihydro-imidazo[4,5-c]quinolin-2-one], the “HT-Perm logPe pH6.8” value in data set [1] was −4.1. Also, the IC50 was 6 nM in data set [2], below 4.57 nM in data set [3] and below 4.57 nM in data set [4].

As to `CNc1ncc(-c2ccc3ncc4c(c3c2)n(-c2ccc(OCCOC)nc2C)c(=O)n4C)cn1` [Example 13.5, 1-[6-(2-Methoxy-ethoxy)-2-methyl-pyridin-3-yl]-3-methyl-8-(2-methylamino-pyrimidin-5-yl)-1,3-dihydro-imidazo[4,5-c]quinolin-2-one], the “HT-Perm logPe pH6.8” value in data set [1] was −4.3. In addition, the results for the IC50 in data set [2], in data set [3] and in data set [4] were 39 nM, 6.9 nM and 11.6 nM, respectively.

For `CCOc1ccc(-c2ccc3ncc4c(c3c2)n(-c2ccc(C)nc2C)c(=O)n4C)cn1` [Example 14.2, 1-(2,6-Dimethyl-pyridin-3-yl)-8-(6-ethoxy-pyridin-3-yl)-3-methyl-1,3-dihydro-imidazo[4,5-c]quinolin-2-one], the “HT-Perm logPe pH6.8” value in data set [1] is −3.8. In addition, the IC50 in data set [2] was 26 nM; in data set [3] it was 20.4 nM; in data set [4] it was 21.7 nM.

For the compound `Cc1ccc(-n2c(=O)n(C)c3cnc4ccc(-c5cnc(N(C)C)nc5)cc4c32)c(C)n1` [Example 14.3, 8-(2-Dimethylamino-pyrimidin-5-yl)-1-(2,6-dimethyl-pyridin-3-yl)-3-methyl-1,3-dihydro-imidazo[4,5-c]quinolin-2-one], the “HT-Perm logPe pH6.8” value in data set [1] is recorded as −3.8. The IC50 in data set [2] amounted to 48 nM; in data set [3], 39 nM; in data set [4], 40.3 nM.

Consider `CNc1ncc(-c2ccc3ncc4c(c3c2)n(-c2ccc(C)nc2C)c(=O)n4C)cn1` [Example 14.4, 1-(2,6-Dimethyl-pyridin-3-yl)-3-methyl-8-(2-methylamino-pyrimidin-5-yl)-1,3-dihydro-imidazo[4,5-c]quinolin-2-one], for which the “HT-Perm logPe pH6.8” value in data set [1] was −4.6. The IC50 in data set [2] is 14 nM; in data set [3], 16.2 nM; in data set [4], 24.2 nM.

As for `Cc1ccc(-n2c(=O)n(C)c3cnc4ccc(-c5cnc(N)c(C(F)(F)F)c5)cc4c32)c(C)n1` [Example 14.5, 8-(6-Amino-5-trifluoromethyl-pyridin-3-yl)-1-(2,6-dimethyl-pyridin-3-yl)-3-methyl-1,3-dihydro-imidazo[4,5-c]quinolin-2-one], the “HT-Perm logPe pH6.8” value in data set [1] is −3.8. Further, the IC50 in data set [2] came out at 17 nM; in data set [3] it was 4.9 nM; in data set [4], 10.8 nM.

Take `CCNc1cc(-c2ccc3ncc4c(c3c2)n(-c2ccc(C)nc2C)c(=O)n4C)cnc1C` [Example 14.6, 1-(2,6-Dimethyl-pyridin-3-yl)-8-(5-ethylamino-6-methyl-pyridin-3-yl)-3-methyl-1,3-dihydro-imidazo[4,5-c]quinolin-2-one]: in data set [1], the “HT-Perm logPe pH6.8” value is recorded as −4.1. Besides, the results for the IC50 in data set [2], in data set [3] and in data set [4] were 6 nM, 5.2 nM and 8.1 nM, respectively.

With `Cc1ccc(-n2c(=O)n(C)c3cnc4ccc(-c5cnc6c(ccn6C)c5)cc4c32)c(C)n1` [Example 14.7, 1-(2,6-Dimethyl-pyridin-3-yl)-3-methyl-8-(1-methyl-1H-pyrrolo[2,3-b]pyridin-5-yl)-1,3-dihydro-imidazo[4,5-c]quinolin-2-one], the “HT-Perm logPe pH6.8” value in data set [1] was −4.3. Also, the values for the IC50 in data set [2], in data set [3] and in data set [4] were 13 nM, 11.5 nM and 20.8 nM, respectively.

Turning to `Cc1ccc(-n2c(=O)n(C)c3cnc4ccc(-c5cncc(NC(C)C)c5)cc4c32)c(C)n1` [Example 14.8, 1-(2,6-Dimethyl-pyridin-3-yl)-8-(5-isopropylamino-pyridin-3-yl)-3-methyl-1,3-dihydro-imidazo[4,5-c]quinolin-2-one], the “HT-Perm logPe pH6.8” value in data set [1] is −4.1. For the same compound, the results for the IC50 in data set [2], in data set [3] and in data set [4] were 28 nM, 9 nM and 61.4 nM, respectively.

Consider `COCCN(C)c1ccc(-n2c(=O)n(C)c3cnc4ccc(-c5cnc(N)c(C(F)(F)F)c5)cc4c32)c(C)n1` [Example 15.1, 8-(6-Amino-5-trifluoromethyl-pyridin-3-yl)-1-{6-[(2-methoxy-ethyl)-methyl-amino]-2-methyl-pyridin-3-yl}-3-methyl-1,3-dihydro-imidazo[4,5-c]quinolin-2-one], for which the “HT-Perm logPe pH6.8” value in data set [1] is −4. Also, the IC50 in data set [2] is 8 nM; in data set [3], below 4.57 nM; in data set [4] it was 6.1 nM.

For the compound `CNc1ncc(-c2ccc3ncc4c(c3c2)n(-c2ccc(N(C)CCOC)nc2C)c(=O)n4C)cn1` [Example 15.2, 1-{6-[(2-Methoxy-ethyl)-methyl-amino]-2-methyl-pyridin-3-yl}-3-methyl-8-(2-methylamino-pyrimidin-5-yl)-1,3-dihydro-imidazo[4,5-c]quinolin-2-one], in data set [1], the “HT-Perm logPe pH6.8” value is given as −3.9. For the same compound, the IC50 is 7 nM in data set [2], 5 nM in data set [3] and 21.4 nM in data set [4].

As to `CCOc1ccc(-c2ccc3ncc4c(c3c2)n(-c2ccc(N(C)CCOC)nc2C)c(=O)n4C)cn1` [Example 15.3, 8-(6-Ethoxy-pyridin-3-yl)-1-{6-[(2-methoxy-ethyl)-methyl-amino]-2-methyl-pyridin-3-yl}-3-methyl-1,3-dihydro-imidazo[4,5-c]quinolin-2-one], the “HT-Perm logPe pH6.8” value in data set [1] is listed as −3.8. Besides, the values for the IC50 in data set [2], in data set [3] and in data set [4] were 120 nM, 12.3 nM and 27.9 nM, respectively.

For `CNc1ccc(-c2ccc3ncc4c(c3c2)n(-c2ccc(N(C)CCOC)nc2C)c(=O)n4C)cn1` [Example 15.4, 1-{6-[(2-Methoxy-ethyl)-methyl-amino]-2-methyl-pyridin-3-yl}-3-methyl-8-(6-methylamino-pyridin-3-yl)-1,3-dihydro-imidazo[4,5-c]quinolin-2-one], in data set [1], the “HT-Perm logPe pH6.8” value is −3.7. The IC50 in data set [2] is 11 nM; in data set [3], 7.2 nM; in data set [4], 15.1 nM.

Consider `COCCN(C)c1ccc(-n2c(=O)n(C)c3cnc4ccc(-c5cnc(N(C)C)nc5)cc4c32)c(C)n1` [Example 15.5, 8-(2-Dimethylamino-pyrimidin-5-yl)-1-{6-[(2-methoxy-ethyl)-methyl-amino]-2-methyl-pyridin-3-yl}-3-methyl-1,3-dihydro-imidazo[4,5-c]quinolin-2-one], for which, in data set [1], the “HT-Perm logPe pH6.8” value was −3.7. Also, the IC50 came to 71 nM in data set [2], 40.7 nM in data set [3] and 132 nM in data set [4].
